Consider 18 molecules from patent publication US10947252B2, “Inhibitors of KEAP1-Nrf2 protein-protein interaction” (Janssen Pharmaceutica NV, priority 2018, dated 2021).

Assay [1] concerns the target Kelch domain of human KEAP1 (321-624 aa) (Homo sapiens (Human), UniProt Q14145). Briefly: KEAP1 KELCH ThermoFluor binding assay.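 Also: Ligand-induced melting temperature shift of E. coli-expressed KEAP1 Kelch protein, Kd estimated from concentration-response curves of ΔTm.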 Particulars: KEAP Kelch […], 1,8-ANS, pH 7.0, average of results obtained, read-out: Tf Kd.
Assay [2] deals with Glo-Response ARE-luc2P HEK293 cell line. As to the kind of experiment: ARE luciferase reporter cell-based assay.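 Also: luciferase signal tracks Nrf2 activation of the ARE once compounds disrupt KEAP1-Nrf2 binding, read with One-Glo reagent, DMSO serving as low control.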 Particulars: Homo sapiens, HEK293, 24 h, average of results obtained. In general terms: Reporter assays use an easily measured gene product as a stand-in for the process of interest.

Molecules are shown by their SMILES.

Chain of Kelch domain of human KEAP1 (321-624 aa) (Q14145 321-624): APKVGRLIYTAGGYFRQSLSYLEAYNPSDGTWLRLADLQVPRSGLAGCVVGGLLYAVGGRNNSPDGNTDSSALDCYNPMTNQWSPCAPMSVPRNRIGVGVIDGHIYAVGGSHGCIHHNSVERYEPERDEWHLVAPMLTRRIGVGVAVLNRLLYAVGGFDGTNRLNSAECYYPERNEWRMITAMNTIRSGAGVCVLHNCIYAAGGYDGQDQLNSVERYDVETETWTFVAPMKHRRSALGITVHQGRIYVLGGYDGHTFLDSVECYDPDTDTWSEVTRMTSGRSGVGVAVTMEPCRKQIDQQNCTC

In general, Kd refers to the equilibrium constant for the complex coming apart. In general, EC50 refers to the midpoint of the concentration-response curve. High values mean lower potency in that assay, low ones higher potency in that assay. With `CC[C@@H]1CN(Cc2cc(C(CC(=O)O)c3ccn4c(C(F)(F)F)nnc4c3)ccc2C)S(=O)(=O)c2cccnc2O1` (single isomer, unassigned) [Example 258, (*R)-3-(3-(((R)-4-Ethyl-1,1-dioxido-3,4-dihydro-2H-pyrido[2,3-b][1,4,5]oxathiazepin-2-yl)methyl)-4-methylphenyl)-3-(3-(trifluoromethyl)-[1,2,4]triazolo[4,3-a]pyridin-7-yl)propanoic Acid], in assay [1], the equilibrium dissociation constant (Kd) was under 0.001 µM. This molecule yielded an EC50 in assay [2] of 0.428 µM.

Regarding `Cc1ccc([C@H](CC(=O)O)c2ccn3c(C(F)(F)F)nnc3c2C)cc1CN1CC2(COC2)Oc2ncccc2S1(=O)=O` (single isomer, unassigned) [Example 260, (*S)-3-(3-((1′,1′-Dioxidospiro[oxetane-3,4′-pyrido[2,3-b][1,4,5]oxathiazepin]-2′(3′H)-yl)methyl)-4-methylphenyl)-3-(8-methyl-3-(trifluoromethyl)-[1,2,4]triazolo[4,3-a]pyridin-7-yl)propanoic Acid], the Kd in assay [1] was under 0.001 µM. Further, in assay [2], the midpoint of the response, the EC50, lay at 0.101 µM.

Regarding `Cc1ccc([C@@H](CC(=O)O)c2ccn3c(C(F)(F)F)nnc3c2C)cc1CN1CC2(COC2)Oc2ncccc2S1(=O)=O` (single isomer, unassigned) [Example 261, (*R)-3-(3-((1′,1′-Dioxidospiro[oxetane-3,4′-pyrido[2,3-b][1,4,5]oxathiazepin]-2′(3′H)-yl)methyl)-4-methylphenyl)-3-(8-methyl-3-(trifluoromethyl)-[1,2,4]triazolo[4,3-a]pyridin-7-yl)propanoic Acid], the Kd in assay [1] is under 0.001 µM. In addition, in assay [2], the midpoint of the response, the EC50, lay at 1.39 µM.

Consider `Cc1ccc([C@H](CC(=O)O)c2ccn3c(C(F)(F)F)nnc3c2C)cc1CN1C[C@H]2CCCN2c2ccccc2S1(=O)=O` (single isomer, unassigned) [Example 266, (*S)-3-(3-(((R)-5,5-Dioxido-7a,8,9,10-tetrahydrobenzo[f]pyrrolo[2,1-d][1,2,5]thiadiazepin-6(7H)-yl)methyl)-4-methylphenyl)-3-(8-methyl-3-(trifluoromethyl)-[1,2,4]triazolo[4,3-a]pyridin-7-yl)propanoic Acid], for which, in assay [1], the Kd was under 0.001 µM. This molecule also had a concentration for a half-maximal effect (EC50) in assay [2] of 0.0146 µM.

For the molecule `Cc1ccc([C@@H](CC(=O)O)c2ccn3c(C(F)(F)F)nnc3c2C)cc1CN1C[C@H]2CCCN2c2ccccc2S1(=O)=O` (single isomer, unassigned) [Example 267, (*R)-3-(3-(((R)-5,5-Dioxido-7a,8,9,10-tetrahydrobenzo[f]pyrrolo[2,1-d][1,2,5]thiadiazepin-6(7H)-yl)methyl)-4-methylphenyl)-3-(8-methyl-3-(trifluoromethyl)-[1,2,4]triazolo[4,3-a]pyridin-7-yl)propanoic Acid], in assay [1], the Kd is under 0.001 µM. In addition, the EC50 in assay [2] was 0.0904 µM.

On to `Cc1ccc([C@H](CC(=O)O)c2ccn3c(C(F)(F)F)nnc3c2C)cc1CN1CC(C)(C)Oc2ncccc2S1(=O)=O` (single isomer, unassigned) [Example 269, (*S)-3-(3-((4,4-Dimethyl-1,1-dioxido-3,4-dihydro-2H-pyrido[2,3-b][1,4,5]oxathiazepin-2-yl)methyl)-4-methylphenyl)-3-(8-methyl-3-(trifluoromethyl)-[1,2,4]triazolo[4,3-a]pyridin-7-yl)propanoic Acid], for which the Kd in assay [1] is under 0.001 µM. In assay [2], this molecule returned an EC50 of 0.365 µM.

Consider `Cc1ccc([C@@H](CC(=O)O)c2ccn3c(C(F)(F)F)nnc3c2C)cc1CN1CC(C)(C)Oc2ncccc2S1(=O)=O` (single isomer, unassigned) [Example 270, (*R)-3-(3-((4,4-Dimethyl-1,1-dioxido-3,4-dihydro-2H-pyrido[2,3-b][1,4,5]oxathiazepin-2-yl)methyl)-4-methylphenyl)-3-(8-methyl-3-(trifluoromethyl)-[1,2,4]triazolo[4,3-a]pyridin-7-yl)propanoic Acid], for which the dissociation constant Kd in assay [1] turned out to be 0.00128 µM. For the same molecule, the concentration for a half-maximal effect (EC50) in assay [2] came to 2.42 µM.

In the case of `Cc1ccc([C@H](CC(=O)O)c2ccn3c(C(F)(F)F)nnc3c2C)cc1CN1C[C@H]2CCCCN2c2ncccc2S1(=O)=O` (single isomer, unassigned) [Example 272, (*S)-3-(3-(((*R)-5,5-Dioxido-7,7a,8,9,10,11-hexahydro-6H-dipyrido[2,1-d:2′,3′-f][1,2,5]thiadiazepin-6-yl)methyl)-4-methylphenyl)-3-(8-methyl-3-(trifluoromethyl)-[1,2,4]triazolo[4,3-a]pyridin-7-yl)propanoic Acid], the Kd in assay [1] is under 0.001 µM. For the same molecule, the EC50 in assay [2] was 0.0109 µM.

As for `Cc1ccc([C@@H](CC(=O)O)c2ccn3c(C(F)(F)F)nnc3c2C)cc1CN1C[C@H]2CCCCN2c2ncccc2S1(=O)=O` (single isomer, unassigned) [Example 273, (*R)-3-(3-(((*R)-5,5-Dioxido-7,7a,8,9,10,11-hexahydro-6H-dipyrido[2,1-d:2′,3′-f][1,2,5]thiadiazepin-6-yl)methyl)-4-methylphenyl)-3-(8-methyl-3-(trifluoromethyl)-[1,2,4]triazolo[4,3-a]pyridin-7-yl)propanoic Acid], the Kd in assay [1] is under 0.001 µM. In assay [2], this molecule displayed a half-maximal effective concentration (EC50) of 0.0258 µM.

As to `Cc1ccc([C@H](CC(=O)O)c2ccn3c(C(F)(F)F)nnc3c2C)cc1CN1C[C@@H]2CCCN2c2ccccc2S1(=O)=O` (single isomer, unassigned) [Example 274, (*S)-3-(3-(((S)-5,5-Dioxido-7a,8,9,10-tetrahydrobenzo[f]pyrrolo[2,1-d][1,2,5]thiadiazepin-6(7H)-yl)methyl)-4-methylphenyl)-3-(8-methyl-3-(trifluoromethyl)-[1,2,4]triazolo[4,3-a]pyridin-7-yl)propanoic Acid], the dissociation constant (Kd) in assay [1] was 0.00119 µM. Also, the EC50 in assay [2] was found to be 0.0512 µM.

As to `Cc1ccc([C@@H](CC(=O)O)c2ccn3c(C(F)(F)F)nnc3c2C)cc1CN1C[C@@H]2CCCN2c2ccccc2S1(=O)=O` (single isomer, unassigned) [Example 275, (*R)-3-(3-(((S)-5,5-Dioxido-7a,8,9,10-tetrahydrobenzo[f]pyrrolo[2,1-d][1,2,5]thiadiazepin-6(7H)-yl)methyl)-4-methylphenyl)-3-(8-methyl-3-(trifluoromethyl)-[1,2,4]triazolo[4,3-a]pyridin-7-yl)propanoic Acid], the Kd in assay [1] is 0.00869 µM. Also, in assay [2], the EC50 is 0.399 µM.

On to `CCc1nnc2c(C)c([C@@H](CC(=O)O)c3ccc(C)c(CN4C[C@H]5CCCN5c5ccccc5S4(=O)=O)c3)ccn12` (single isomer, unassigned) [Example 279, (*S)-3-(3-(((R)-5,5-Dioxido-7a,8,9,10-tetrahydrobenzo[f]pyrrolo[2,1-d][1,2,5]thiadiazepin-6(7H)-yl)methyl)-4-methylphenyl)-3-(3-ethyl-8-methyl-[1,2,4]triazolo[4,3-a]pyridin-7-yl)propanoic Acid], for which, in assay [1], the dissociation constant (Kd) is under 0.001 µM. Besides, it took 0.235 µM to reach a half-maximal effect in assay [2] (EC50).

Take `CCc1nnc2c(C)c([C@H](CC(=O)O)c3ccc(C)c(CN4C[C@H]5CCCN5c5ccccc5S4(=O)=O)c3)ccn12` (single isomer, unassigned) [Example 280, (*R)-3-(3-(((R)-5,5-Dioxido-7a,8,9,10-tetrahydrobenzo[f]pyrrolo[2,1-d][1,2,5]thiadiazepin-6(7H)-yl)methyl)-4-methylphenyl)-3-(3-ethyl-8-methyl-[1,2,4]triazolo[4,3-a]pyridin-7-yl)propanoic Acid]: the Kd in assay [1] was under 0.001 µM. Also, the 50% effective concentration (EC50) in assay [2] is 4.01 µM.

Regarding `CCc1nnc2c(C)c([C@@H](CC(=O)O)c3ccc(C)c(CN4C[C@H]5CCCN5c5ncccc5S4(=O)=O)c3)ccn12` (single isomer, unassigned) [Example 282, (*S)-3-(3-(((R)-5,5-dioxido-7a,8,9,10-tetrahydropyrido[2,3-f]pyrrolo[2,1-d][1,2,5]thiadiazepin-6(7H)-yl)methyl)-4-methylphenyl)-3-(3-ethyl-8-methyl-[1,2,4]triazolo[4,3-a]pyridin-7-yl)propanoic Acid], the dissociation constant Kd in assay [1] is under 0.001 µM. In assay [2], this molecule registered an EC50 of 0.293 µM.

On to `CCc1nnc2c(C)c([C@H](CC(=O)O)c3ccc(C)c(CN4C[C@H]5CCCN5c5ncccc5S4(=O)=O)c3)ccn12` (single isomer, unassigned) [Example 283, (*R)-3-(3-(((R)-5,5-dioxido-7a,8,9,10-tetrahydropyrido[2,3-f]pyrrolo[2,1-d][1,2,5]thiadiazepin-6(7H)-yl)methyl)-4-methylphenyl)-3-(3-ethyl-8-methyl-[1,2,4]triazolo[4,3-a]pyridin-7-yl)propanoic Acid], for which, in assay [1], the Kd was under 0.001 µM. Moreover, the EC50 in assay [2] was 4.17 µM.

Consider `Cc1ccc([C@H](CC(=O)O)c2ccn3c(C(F)(F)F)nnc3c2C)cc1CN1CC(C)(C)Oc2ccccc2S1(=O)=O` (single isomer, unassigned) [Example 284, 3-(3-((4,4-Dimethyl-1,1-dioxido-3,4-dihydro-2H-benzo[b][1,4,5]oxathiazepin-2-yl)methyl)-4-methylphenyl)-3-(8-methyl-3-(trifluoromethyl)-[1,2,4]triazolo[4,3-a]pyridin-7-yl)propanoic Acid], for which the dissociation constant Kd in assay [1] came out at 0.00165 µM. This molecule also came in with a concentration for a half-maximal effect (EC50) in assay [2] of 0.213 µM.

As for `Cc1ccc([C@H](CC(=O)O)c2ccn3c(C(F)(F)F)nnc3c2C)cc1CN1CC(C)(C)Oc2ccccc2S1(=O)=O` (single isomer, unassigned) [Example 285, (*S)-3-(3-((4,4-Dimethyl-1,1-dioxido-3,4-dihydro-2H-benzo[b][1,4,5]oxathiazepin-2-yl)methyl)-4-methylphenyl)-3-(8-methyl-3-(trifluoromethyl)-[1,2,4]triazolo[4,3-a]pyridin-7-yl)propanoic Acid], the Kd in assay [1] was 0.0011 µM. Besides, the concentration giving a half-maximal response (EC50) in assay [2] was found to be 0.129 µM.

Take `Cc1ccc([C@@H](CC(=O)O)c2ccn3c(C(F)(F)F)nnc3c2C)cc1CN1CC(C)(C)Oc2ccccc2S1(=O)=O` (single isomer, unassigned) [Example 286, (*R)-3-(3-((4,4-Dimethyl-1,1-dioxido-3,4-dihydro-2H-benzo[b][1,4,5]oxathiazepin-2-yl)methyl)-4-methylphenyl)-3-(8-methyl-3-(trifluoromethyl)-[1,2,4]triazolo[4,3-a]pyridin-7-yl)propanoic Acid]: the Kd in assay [1] turned out to be 0.00339 µM. This molecule yielded an EC50 in assay [2] of 0.504 µM.
